Experimental data from ChEMBL document CHEMBL1201862, “PubChem BioAssay data set” (2004).
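Briefly, cells in 96-well plates were exposed to five compound concentrations for 48 h, and endpoints were estimated by linear interpolation. GI50 = concentration required for 50% inhibition of growth.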 Calls of active or inactive are those of the source. No stated cut-off is given here; in the data, active = GI50 up to about 1.1 µM and inactive = higher.

Assays:
Test in all cases: inhibition of tumour cell growth, NCI panel, 48 h
LOX IMVI = test system: LOX IMVI
U-251 = test system: U-251
UACC-62 = test system: UACC-62
KM12 = test system: KM12
MCF7 = test system: MCF7
MDA-N = test system: MDA-N
Malme-3M = test system: Malme-3M
NCI-H226 = test system: NCI-H226
A549 = test system: A549
SK-MEL-5 = test system: SK-MEL-5
SK-MEL-28 = test system: SK-MEL-28
HCT-116 = test system: HCT-116
SNB-19 = test system: SNB-19
CCRF-CEM = test system: CCRF-CEM
SF-268 = test system: SF-268
COLO 205 = test system: COLO 205
TK-10 = test system: TK-10
SW-620 = test system: SW-620
OVCAR-3 = test system: OVCAR-3
NCI-H23 = test system: NCI-H23

Row | SMILES | GI50 (LOX IMVI) | GI50 (U-251) | GI50 (UACC-62) | GI50 (KM12) | GI50 (MCF7) | GI50 (MDA-N) | GI50 (Malme-3M) | GI50 (NCI-H226) | GI50 (A549) | GI50 (SK-MEL-5) | GI50 (SK-MEL-28) | GI50 (HCT-116) | GI50 (SNB-19) | GI50 (CCRF-CEM) | GI50 (SF-268) | GI50 (COLO 205) | GI50 (TK-10) | GI50 (SW-620) | GI50 (OVCAR-3) | GI50 (NCI-H23)
1 | CC(C)CC(=O)NC(NC(C)C)(C(F)(F)F)C(F)(F)F | > 100 µM (inactive) | > 100 µM (inactive) | > 100 µM (inactive) | > 100 µM (inactive) | > 100 µM (inactive) | > 100 µM (inactive) | > 100 µM (inactive) | > 100 µM (inactive) | > 100 µM (inactive) | > 100 µM (inactive) | > 100 µM (inactive) | > 100 µM (inactive) | > 100 µM (inactive) | > 100 µM (inactive) | > 100 µM (inactive) | > 100 µM (inactive) | > 100 µM (inactive) | > 100 µM (inactive) |  | 
2 | O=S(=O)(O)c1ccc(/N=N/c2ccccc2)cc1 | > 100 µM (inactive) | > 100 µM (inactive) | > 100 µM (inactive) | > 100 µM (inactive) | > 100 µM (inactive) | > 100 µM (inactive) |  | > 100 µM (inactive) | > 100 µM (inactive) | > 100 µM (inactive) | > 100 µM (inactive) | > 100 µM (inactive) | > 100 µM (inactive) | > 100 µM (inactive) | > 100 µM (inactive) | > 100 µM (inactive) | > 100 µM (inactive) | > 100 µM (inactive) | > 100 µM (inactive) | > 100 µM (inactive)
3 | Cc1ccc(C(O)c2cnc(C)n2Cc2ccccc2)cc1 (stereo unspecified) | > 100 µM (inactive) | > 100 µM (inactive) | > 100 µM (inactive) | > 100 µM (inactive) | > 100 µM (inactive) | > 100 µM (inactive) | > 100 µM (inactive) | > 100 µM (inactive) | > 100 µM (inactive) | 79.1 µM (inactive) | > 100 µM (inactive) | > 100 µM (inactive) | > 100 µM (inactive) |  | > 100 µM (inactive) | > 100 µM (inactive) | > 100 µM (inactive) | > 100 µM (inactive) | > 100 µM (inactive) | > 100 µM (inactive)
4 | O=[N+]([O-])/C(C(Cl)=C(Cl)Cl)=C1\NCCO1 | > 100 µM (inactive) | > 100 µM (inactive) | 35.7 µM (inactive) | > 100 µM (inactive) | > 100 µM (inactive) | > 100 µM (inactive) | 45.8 µM (inactive) | 39.3 µM (inactive) | > 100 µM (inactive) | > 100 µM (inactive) | > 100 µM (inactive) | 87.5 µM (inactive) | > 100 µM (inactive) | 22.9 µM (inactive) | > 100 µM (inactive) | > 100 µM (inactive) | > 100 µM (inactive) |  | 52.5 µM (inactive) | > 100 µM (inactive)
5 | COc1cc(CNC2=NCCC2)cc(OC)c1OC |  | 53.3 µM (inactive) | > 100 µM (inactive) | > 10 µM (inactive) | > 100 µM (inactive) | 34.5 µM (inactive) | > 100 µM (inactive) | > 100 µM (inactive) | > 100 µM (inactive) | > 100 µM (inactive) | > 100 µM (inactive) | 39.6 µM (inactive) | > 100 µM (inactive) | > 100 µM (inactive) | > 100 µM (inactive) | > 100 µM (inactive) | > 100 µM (inactive) | > 100 µM (inactive) | > 100 µM (inactive) | > 100 µM (inactive)
6 | CSc1ccc2c(c1)C(N1CCN(C)CC1)Cc1ccccc1S2 (stereo unspecified) | 2.01 µM (inactive) | 4.43 µM (inactive) | 2.05 µM (inactive) | 2.62 µM (inactive) | 2.36 µM (inactive) | 3.07 µM (inactive) | 1.71 µM (inactive) | 7.8 µM (inactive) | 7.18 µM (inactive) | 1.82 µM (inactive) |  | 3.84 µM (inactive) | 13.3 µM (inactive) | 0.219 µM (active) | 3.43 µM (inactive) | 1.98 µM (inactive) | 3.35 µM (inactive) | 6.01 µM (inactive) | 8.91 µM (inactive) | 13.9 µM (inactive)
7 | C=C(Br)COc1ccc2c(C)cc(=O)oc2c1 | > 100 µM (inactive) | 65.3 µM (inactive) |  | 0.319 µM (active) | < 0.01 µM (active) | > 100 µM (inactive) | > 100 µM (inactive) | > 100 µM (inactive) | 61.5 µM (inactive) | 14.6 µM (inactive) | > 100 µM (inactive) | 59.3 µM (inactive) | > 100 µM (inactive) | > 100 µM (inactive) | 69 µM (inactive) | 1.99 µM (inactive) | 45.9 µM (inactive) | > 100 µM (inactive) | 86.3 µM (inactive) | 90.4 µM (inactive)
8 | Cc1ccc(-c2c(C#N)c(-c3ccccc3)n(NS(=O)(=O)c3ccccc3)c(=O)c2C#N)cc1 | 51.1 µM (inactive) | 81.7 µM (inactive) | 95.5 µM (inactive) | 89.3 µM (inactive) | 76.2 µM (inactive) | 92.7 µM (inactive) | 61.5 µM (inactive) | > 100 µM (inactive) | > 100 µM (inactive) | 34.6 µM (inactive) | > 100 µM (inactive) | 74.5 µM (inactive) | 76 µM (inactive) | 32.1 µM (inactive) | 63.1 µM (inactive) | > 100 µM (inactive) | > 100 µM (inactive) | 86.3 µM (inactive) |  | 
9 | CSc1[nH]nc(N)c1C(=O)Nc1ccc(C)cc1 | 38.6 µM (inactive) | 50.2 µM (inactive) | > 100 µM (inactive) |  | 39.5 µM (inactive) | 49.5 µM (inactive) | 89.1 µM (inactive) | > 100 µM (inactive) | 51.6 µM (inactive) | 31 µM (inactive) | 48.8 µM (inactive) | 75.2 µM (inactive) | > 100 µM (inactive) | 26.1 µM (inactive) | 47.5 µM (inactive) | 55 µM (inactive) | 43 µM (inactive) | 48.1 µM (inactive) | 77.3 µM (inactive) | 61.1 µM (inactive)
10 | CC(CC[C@@H](O)C(C)(C)O)C1[C@@H](O)CC2(C)C3CC(O)C4C(C)(C)[C@@H](OC5OC(CO)C(O)C(O)C5O)CC[C@@]45C[C@@]35CC[C@]12C (stereo partly specified) |  | > 10 µM (inactive) | > 10 µM (inactive) | > 10 µM (inactive) | > 10 µM (inactive) | > 10 µM (inactive) | > 10 µM (inactive) | 8.79 µM (inactive) | > 10 µM (inactive) | > 10 µM (inactive) | > 10 µM (inactive) | > 10 µM (inactive) | > 10 µM (inactive) | > 10 µM (inactive) | > 10 µM (inactive) | > 10 µM (inactive) | > 10 µM (inactive) | > 10 µM (inactive) | > 10 µM (inactive) | > 10 µM (inactive)
11 | O=P1(O)c2ccccc2CSCc2ccccc21 | > 100 µM (inactive) | > 100 µM (inactive) | > 100 µM (inactive) | > 100 µM (inactive) | > 100 µM (inactive) | > 100 µM (inactive) |  | > 100 µM (inactive) | > 100 µM (inactive) | > 100 µM (inactive) | > 100 µM (inactive) | > 100 µM (inactive) | > 100 µM (inactive) | > 100 µM (inactive) | > 100 µM (inactive) | > 100 µM (inactive) | > 100 µM (inactive) | > 100 µM (inactive) | > 100 µM (inactive) | > 100 µM (inactive)
12 | C/C=C/C(C/C=C(\C)CO[Si](C)(C)C(C)(C)C)O[Si](C)(C)C(C)(C)C (stereo unspecified) | > 100 µM (inactive) |  | > 100 µM (inactive) | > 100 µM (inactive) | > 100 µM (inactive) | > 100 µM (inactive) | > 100 µM (inactive) | > 100 µM (inactive) | > 100 µM (inactive) | > 100 µM (inactive) | > 100 µM (inactive) | > 100 µM (inactive) | > 100 µM (inactive) | > 100 µM (inactive) | > 100 µM (inactive) | > 100 µM (inactive) | > 100 µM (inactive) | > 100 µM (inactive) | > 100 µM (inactive) | > 100 µM (inactive)
13 | [C-]#[N+]C1(C(=O)OCC)CC1 | > 100 µM (inactive) | > 100 µM (inactive) | > 100 µM (inactive) |  | > 100 µM (inactive) | > 100 µM (inactive) | > 100 µM (inactive) | > 100 µM (inactive) | > 100 µM (inactive) | > 100 µM (inactive) | > 100 µM (inactive) | > 100 µM (inactive) | > 100 µM (inactive) | > 100 µM (inactive) | > 100 µM (inactive) |  | > 100 µM (inactive) | > 100 µM (inactive) | > 100 µM (inactive) | > 100 µM (inactive)
14 | Nc1ncnc2c1ncn2-c1ccc([N+](=O)[O-])cn1 | > 100 µM (inactive) | > 100 µM (inactive) | > 100 µM (inactive) | > 100 µM (inactive) | > 100 µM (inactive) | > 100 µM (inactive) |  | > 100 µM (inactive) | > 100 µM (inactive) | > 100 µM (inactive) | > 100 µM (inactive) | > 100 µM (inactive) | > 100 µM (inactive) | > 100 µM (inactive) | > 100 µM (inactive) | > 100 µM (inactive) | > 100 µM (inactive) | > 100 µM (inactive) | > 100 µM (inactive) | > 100 µM (inactive)
15 | ClCCCC1COc2ccccc2O1 (stereo unspecified) |  | > 100 µM (inactive) | 98.6 µM (inactive) |  | > 100 µM (inactive) | > 100 µM (inactive) | > 100 µM (inactive) | > 100 µM (inactive) | > 100 µM (inactive) | > 100 µM (inactive) | > 100 µM (inactive) | 45.7 µM (inactive) | > 100 µM (inactive) | > 100 µM (inactive) | 96.6 µM (inactive) | > 100 µM (inactive) | > 100 µM (inactive) | > 100 µM (inactive) | > 100 µM (inactive) | > 10 µM (inactive)
